Reference: ChEMBL document CHEMBL1124222 (J Med Chem, 1988)

Biological target: T1, D(2) dopamine receptor (Rattus norvegicus, UniProt P61169)
Assay: Affinity constant of compound was evaluated in rat striatum tissue preparation.
Format: tissue-based

T1 sequence (P61169 whole entry): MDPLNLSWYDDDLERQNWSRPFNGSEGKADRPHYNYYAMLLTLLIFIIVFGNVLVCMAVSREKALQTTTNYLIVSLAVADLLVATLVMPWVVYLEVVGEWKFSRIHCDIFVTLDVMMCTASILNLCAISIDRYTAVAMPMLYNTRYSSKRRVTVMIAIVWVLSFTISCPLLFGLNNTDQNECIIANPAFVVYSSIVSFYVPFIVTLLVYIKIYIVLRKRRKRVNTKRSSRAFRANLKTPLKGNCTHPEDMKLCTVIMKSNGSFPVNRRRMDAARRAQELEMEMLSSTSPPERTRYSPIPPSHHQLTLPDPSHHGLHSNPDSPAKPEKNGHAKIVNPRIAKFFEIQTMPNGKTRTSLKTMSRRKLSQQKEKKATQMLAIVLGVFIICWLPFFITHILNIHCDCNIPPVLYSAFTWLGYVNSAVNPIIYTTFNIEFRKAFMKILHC

| Ki | SMILES |
| --- | --- |
| 31.1 nM | CCN1CCC[C@H]1CNC(=O)c1c(O)cccc1OC |
| 0.43 nM | CCN1CCCC1CNC(=O)c1c(OC)ccc(I)c1O (stereo unspecified) |

Biological target: T1, D(2) dopamine receptor
Assay: Inhibitory constant against binding of [125I]- IBZM to rat striatal membrane
Parameters: species or system Striatum

| Ki | SMILES |
| --- | --- |
| 359 nM | O=C(c1ccc(F)cc1)C1CCN(CCn2c(=O)[nH]c3ccccc3c2=O)CC1 [KETANSERIN] |
| 0.633 nM | CCN1CCC[C@H]1CNC(=O)c1c(OC)ccc(I)c1O [IOLOPRIDE] |
| 31.1 nM | CCN1CCC[C@H]1CNC(=O)c1c(O)cccc1OC |
| 30.3 nM | CCN1CCC[C@@H]1CNC(=O)c1c(OC)ccc(I)c1O |
